According to patent US20080249303A1 (WYETH, priority 2007, published 2008):

Columns and labels:
[1] = Bazedoxifene acetate recovery in different extraction media, XRD peak area after tablet extraction; type: physicochemical; details: 1.0 mL/tablet, XRD peak at 12.8° (Form A)
Description: The coatings of three of the tablets were removed. The resulting tablets were then placed in a small beaker. About 3.0 ml of extraction medium solution was added to the beaker to produce a mixture. The mixture was broken up and stirred for about 5 to about 15 minutes. The resulting mixture was filtered and washed with an additional 3.0 ml of extraction medium solution three times to produce a solid (filtrand). The recovered solid was dried at about 40° C. overnight. The dried solid was grinded and pressed into pellets for XRD measurement. This procedure can be scaled up or down for various quantities of BZA tablets. This procedure was employed for the samples found in Table 1.
X-Ray Powder Diffraction analyses were carried out on samples prepared according to Examples 1 and 2 using a Bruker D8 Discover X-ray diffractometer with GADDS. The diffractometer power was set at 40 kV and 40 mA. The collimator diameter of the instrument was about 0.8 mm and the detector-to-sample distance was set at about 30 cm. The X-ray incident angle relative to the pellet/tablet surface was about 40 and the detection angle relative to the pellet/tablet surface was about 16±0.2°. Data were collected at about 120 minutes to about 240 minutes.
The following table illustrates the results of experiments using the extraction methods of Example 1. The extractions were performed using different extraction media and the results were measured in terms of peak area of bazedoxifene using XRD as described in Example 3.

[2] = as above; type: physicochemical; details: XRD peak at 12.8° (Form A)

Cc1c(-c2ccc(O)cc2)n(Cc2ccc(OCCN3CCCCCC3)cc2)c2ccc(O)cc12 [Bazedoxifene acetate, 1-[4-(2-azepan-1-yl-ethoxy)-benzyl]-2-(4-hydroxy-phenyl)-3-methyl-1H-indol-5-ol acetic acid]
Peak Area of Bazedoxifene ([1]; Experiment 6, 0.50 M Ammonium Acetate, pH 6.20): 22.7 count · degree | Peak Area of Bazedoxifene ([1]; Experiment 7, 0.125 M Ammonium Acetate + 0.375 M Sodium Acetate, pH 6.85): 23.1 count · degree | Peak Area of Bazedoxifene ([1]; Experiment 8, 0.05 M Ammonium Acetate + 0.45 M Sodium Acetate, pH 7.18): 32.0 count · degree | Peak Area of Bazedoxifene ([1]; Experiment 9, 0.50 M Sodium Acetate, pH 8.34): 36.2 count · degree | Peak Area of Bazedoxifene ([1]; Experiment 10, 0.50 M Sodium Chloride, pH 9.20 adjusted by Sodium Hydroxide): 21.8 count · degree | Peak Area of Bazedoxifene ([2]; Experiment 1, Millipore Water, pH 5.9, 2.50 mL/tablet): 3.3 count · degree | Peak Area of Bazedoxifene ([2]; Experiment 2, Millipore Water, pH 5.9, 1.67 mL/tablet): 4.9 count · degree | Peak Area of Bazedoxifene ([2]; Experiment 3, Diluted Acetic Acid, pH 1.96, 2.50 mL/tablet): No Detection | Peak Area of Bazedoxifene ([2]; Experiment 5, Millipore Water, pH 5.9, 0.83 mL/tablet): 11.6 count · degree
